Data reported in patent US11413348B2, “Low molecular weight cationic lipids for oligonucleotide delivery” (SIRNA THERAPEUTICS, INC., priority 2010, dated 2022).

How the values were obtained:
serum ApoE = molecular target: T1, serum ApoE (Macaca mulatta, UniProt Q28502); experiment: Heparin Sepharose HI-TRAP binding assay; set-up: species or system rhesus monkey; details: HI-TRAP binding upon rhesus serum incubation, 2×DPBS conditions
T1 construct: from tissue; host or cells: rhesus monkey serum
T1 sequence (Q28502 19-295): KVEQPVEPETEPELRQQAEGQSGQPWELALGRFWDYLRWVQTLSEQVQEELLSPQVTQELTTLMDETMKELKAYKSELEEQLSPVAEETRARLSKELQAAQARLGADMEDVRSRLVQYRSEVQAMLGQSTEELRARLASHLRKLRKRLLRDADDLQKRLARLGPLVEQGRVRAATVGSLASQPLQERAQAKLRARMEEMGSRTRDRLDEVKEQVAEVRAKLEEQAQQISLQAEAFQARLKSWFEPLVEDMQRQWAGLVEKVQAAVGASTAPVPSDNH
Protocol: Lipid nanoparticles (LNP) with neutral surface charge are not retained after injection onto heparin sepharose with 1× Dulbecco's phosphate buffered saline (DPBS) as the running buffer but elute in the column void volume. […] Lipid nanoparticles with surface bound ApoE bind to heparin sepharose with high affinity and are eluted only at high salt (1M NaCl).
Lipid nanoparticles were incubated at 37° C. for 20 min at a final siRNA concentration of 50 μg/mL with various concentrations of either purified or recombinant human apolipoprotein E or 0.1-50% rat/mouse/rhesus monkey/human serum in 1× Dulbccco's phosphate buffered saline (DPBS). After incubation with ApoE or serum LNP samples were diluted 10-fold using 1×DPBS and analyzed by heparin sepharose chromatography. Peak area of retained LNP (after subtraction of appropriate blank signals) is compared to total peak area of LNP control without ApoE and/or serum incubation to determine the percentage of the LNP which undergoes shift to high affinity heparin interaction after incubation with ApoE/serum.
A heparin sepharose HI-TRAP™ chromatography column (GE Healthcare; 1 mL bed volume) is equilibrated with either 1× or 2× Dulbecco's PBS; the higher 2× salt concentration is used for LNPs with higher intrinsic retention on heparin sepharose (presumably due to higher positive surface charge). • Mobile Phase A: 1× or 2×DPBS • Mobile Phase B: 1M NaCl in 10 mM sodium phosphate buffer, pH 7.0 • 100% A delivered isocratically for 10 min followed by step gradient to 100% B; hold for additional 10 min; step gradient back to 100% A and reequilibrate for additional 10 min prior to injection of next sample • Flow rate: 1 mL/min • Sample injection volume: 50 μL. • Detection: UV @260 nm HI-TRAP™ Binding Results Upon Rhesus Serum Incubation (2×DPBS Conditions)

ApoE = molecular target: T2, ApoE (Macaca mulatta, UniProt Q28502); experiment: In vitro ApoE binding assay (anti-PEG capture, ApoE ELISA, stem-loop RT-PCR); details: LNP 4 ug/mL in 90% rhesus serum, 37° C., 20 minutes; estimate of 500 siRNA per LNP
T2 construct: from tissue; host or cells: rhesus serum
T2 sequence (Q28502 19-295): as above
Protocol: LNPs are incubated at 37° C. in 90% rhesus serum at a final LNP concentration of 4 ug/mL. Incubation is for 20 minutes with orbital rotation. After incubation, the samples are diluted 1:20 in PBS and 100 uL of each diluted sample is aliquoted to wells of an anti-PEG antibody coated 96-well plate (Life Diagnostics Cat. No. P-0001PL. After incubation at room temperature for 1 hour, the plate is washed 5× with 300 uL PBS. After washing, 50 uL of 0.2% Triton X-100 is added to each well and the plate incubated at 37° C. for 10 minutes, followed by shaking on a plate shaker for 1 minute at 750 rpm. Samples are frozen prior to performing the ApoE ELISA and stem loop PCR analysis of samples.
An ApoE ELISA assay is performed to quantitate ApoE bound to the LNPs after incubation in rhesus serum. Anti-ApoE antibody (Milipore, Cat No. AB947) is diluted 1:1000 in PBS and 100 uL of diluted antibody is added to each well of a polystyrene high binding plate. The plate with antibody is incubated overnight at 4° C., after which the plate is washed 2× with 200 uL of PBS. Next, 200 uL of buffer containing 1% BSA and 0.05% Tween-20 in PBS (Incubation Buffer) is added to each well followed by incubation at room temperature for 1 hour. Plates are washed 5× with PBS containing 0.05% Tween-20. Frozen Triton lysis test samples are thawed and diluted 1:6 with incubation buffer and 100 uL of test sample is aliquoted to wells of the ApoE antibody plate. Incubation is for 1 hour at room temperature followed by a 5× wash with PBS containing 0.05% Tween-20. After washing, 100 uL of biotinylated anti-ApoE antibody (Mabtech, Cat. ANo. E887-biotin), diluted 1:500 in incubation buffer, is added to each well and incubated for 1 hour at room temperature, followed by a 5× wash with 0.05% Tween-20 in PBS. 100 uL per well, of Streptavidin-HPR (Thermo, Cat. No. TS-125-HR), is then added and incubated for 1 hour at room temperature. After washing 5× with 0.05% Tween-20 in PBS, 100 uL of TMB Substrate (Thermo, Cat. No. 34028) is added to each well, followed by incubation at room temperature for 20 minutes in the dark. The calorimetric reaction is slopped with 100 uL of TMB Stop Solution (KPL, Cat. No. 50-85-04) and absorbance at 450 nm is determined. An ApoE standard curve is prepared by diluting rhesus Recombinant ApoE in incubation buffer with 0.03% Triton X-100 with concentrations ranging from 100 ng/mL to 0.78 ng/mL. ApoE standards are evaluated in the ELISA in parallel to the test samples. A rhesus serum only (no LNP) control is utilized to obtain a background subtraction for non-LNP dependent ApoE signal in the ELISA.
To normalize to the ApoE bound to the amount of LNP bound to the anti-PEG antibody plate, the amount of siRNA retained in the anti-PEG antibody well is quantitated by stem-loop PCR and related to the number of siRNAs encapsulated per LNP, to give an approximate measure of total LNP particles bound per well.
The standard curve is prepared using the molecular weight of the siRNA (13693 g/mol for ApoB 17063) to calculate the copy number. The high standard should contain 10^11 copies per 3 μl. A 10-fold serial dilution is performed across a row of an assay plate until the lowest standard contains 10^2 copies per 3 μl. Dilute 0.2% Triton X-100 1:80 in water and pipette 20 uL of the diluted Triton X-100 into 10 wells of a 96 well plate. 30 uL of the serial diluted standard curve and mix are added to each well of the plate. 10 uL of the spiked standard curve is used in the reverse transcription reaction.
Triton lysates from the PEG antibody plate capture are diluted 1 to 2000 in nuclease free water. 10 uL of ‘RT-Primer Mix’ (Applied Biosystem's TaqMan MicroRNA Reverse Transcription Kit Cat. No. 4366596) is added to each well of a 96-well Micro-Amp QPCR plate (ABI Cat #N801-0560).
[…] of each test sample (diluted 1 to 2000) or spiked standard curve (above) are aliquoted into the 96-well plate. […]

Row | Structure (SMILES) | % Bound (serum ApoE) [%] | ApoE Molecules/LNP (ApoE) [Molecules/LNP]
1 | CCCCC/C=C\C/C=C\CCCCCCCCCC(CCCCCCCCC)CCN(C)C (stereo not shown) [Compound 32, (13Z,16Z)—N,N-dimethyl-3-nonyldocosa-13,16-dien-1-amine] | 100 | 12.8
2 | CCCCCCCCCC(CCCCCCCC1CC1CCCCCCCC)N(C)C [Compound 33, N,N-dimethyl-1-[(1S,2R)-2-octylcyclopropyl]hepladecan-8-amine] | <5 | 18.1
